# Experimental data: patent US10639301B2 (Commissariat a L'Energie Atomique et Aux Energies …, priority 2013, dated 2020)
# “Also recorded” adds a separate entry of the source.
# Tests used:
# [1] = poor metabolizers (PM) of sparteine/debrisoquine, 50 mg racemic flecainide acetate (Gross et al, 1989); cited from earlier work
# [2] = test system: narcoleptic Ox-/- mice; assay: DREM cataplectic-like episodes in narcoleptic orexin knockout mice; assay type: in vivo; settings: oral
# [3] = test system: narcoleptic Ox-/- mice; settings: orexin KO mouse model, literature; cited from earlier work
# [4] = test system: mice; assay: Locomotor activity by video tracking; assay type: in vivo; settings: oral
# Experimental: Locomotor activity is evaluated by video tracking. Videos have been analyzed using Ethovision XT software (Noldus®).*: p<0.01 in a Two-Way ANOVA analysis
# [5] = target: T1, Cx30 (Homo sapiens, UniProt O95452); assay: Dye transfer (cell-parachute) gap junction assay, Rin-Cx30 cells; assay type: cell-based; settings: flecainide racemate 70, 140 or 280 μM, 4 hours, flow cytometry
# T1 construct: expressed in transfected cells; host or cells: rat insulinoma RIN cell line (Rin-Cx30), pcDNA3.1/V5-His-TOPO, geneticin-selected
# Experimental: (§1) The rat insulinoma RIN cell line, deficient in GJIC (del Corsso et al, 2006), was grown in OptiMem medium, supplemented with 10% fetal calf serum. GJB6 (Cx30), GJB1 (Cx32), GJB2 (Cx26), GJA5 (Cx40) and GJA1 (Cx43) open reading frames were amplified from human cDNA. The open reading frames were cloned in pcDNA3.1/V5-His-TOPO (Invitrogen). Cells were transfected using Lipofectamine and further selected using geneticin.
# (§2) Cells were seeded and loaded with two fluorochromes, calcein acetoxymethyl ester, a gap junction permeable dye, and Vybrant Dil, a membrane lipophilic dye. […] Flow cytometry was conducted on a FACScan. Inhibition was quantified as the relative number of receiver cells that gained fluorescence to the total number of receiver cells (non GJ-mediated dye transfer was then substracted to these ratio based on connexin non-expressing RIN cells, defined at background dye transfer ratio). This ratio of cellular coupling was then normalized, after each treatment, on the vehicle one.
# [6] = test system: Wild-type C57bl/6 male mice; assay: Wake duration by polysomnographic analysis; assay type: in vivo; settings: oral
# From the text: Wild-type C57bl/6 male mice (n=9/groups) were implanted with EEG/EMG/EOG electrodes for polysomnographic analyses. […] Here the inventors represented the duration of wake during the first three hours (after a one-hour period post-administration). **: p<0.01 in a One-Way ANOVA analysis.
# [7] = test system: cardiac myocyte cell pairs; settings: cardiac myocyte cell pairs (Daleau et al, 1998); cited from earlier work
# [8] = target: T2, Cx32 (Homo sapiens, UniProt P08034); assay: Dye transfer (cell-parachute) gap junction assay, Rin-Cx32 cells; assay type: cell-based; settings: flecainide racemate 70, 140 or 280 μM, 4 hours, flow cytometry
# T2 construct: expressed in transfected cells; host or cells: rat insulinoma RIN cell line (Rin-Cx32), pcDNA3.1/V5-His-TOPO, geneticin-selected
# Experimental: as §1, §2
# [9] = test system: mice; assay: T-maze alternating sequential test (spatial working memory); assay type: in vivo; settings: intraperitoneal
# From the text: The alternating sequential test is widely used to assess spatial working memory in mice (Beracochea & Jaffard, 1987). Spontaneous alternation is the innate tendency of rodents to alternate their choices to entry into the compartments of arrival of a T-maze device, over successive trials. To alternate during a given trial N, the animal must remember the choice made selectively in test N−1, so the decline in alternating will reflect the phenomenon of oblivion. The response in alternating is performance measure. Sequential alternating assesses more specifically the sensitivity to interference, a major factor in oblivion.
# The experiment takes place in a T-maze (50 cm×10 cm×25 cm). All the subjects were given 7 successive trials separated by a 120-s intertrial interval. To begin a trial, the mouse was placed in the start box for 120 s before the door to the stem was opened. When the subject entered one of the goal arms, the door to that arm was closed. The chosen arm and the time that elapsed between opening the door and the arrival to the end of the chosen arm (task achievement time) were registered. Following a 30-s confinement period (fixed and invariant) in the chosen arm, the animal was removed and placed in the start box for a new trial. Between each test, the unit is cleaned with a cloth soaked in water and alcohol to avoid olfactory detection. […]
# [10] = target: T3, Cx26 (Homo sapiens, UniProt P29033); assay: Dye transfer (cell-parachute) gap junction assay, Rin-Cx26 cells; assay type: cell-based; settings: flecainide racemate 70, 140 or 280 μM, 4 hours, flow cytometry
# T3 construct: expressed in transfected cells; host or cells: rat insulinoma RIN cell line (Rin-Cx26), pcDNA3.1/V5-His-TOPO, geneticin-selected
# Experimental: as §1, §2
# [11] = target: T4, Cx40 (Homo sapiens, UniProt P36382); assay: Dye transfer (cell-parachute) gap junction assay, Rin-Cx40 cells; assay type: cell-based; settings: flecainide racemate 70, 140 or 280 μM, 4 hours, flow cytometry
# T4 construct: expressed in transfected cells; host or cells: rat insulinoma RIN cell line (Rin-Cx40), pcDNA3.1/V5-His-TOPO, geneticin-selected
# Experimental: as §1, §2
# [12] = test system: RIN cells; assay: Toxicity analysis, cell viability by WST-1; assay type: cell-based, rat; settings: RIN cells treated 4 hours, grown 24 h; at the dose inhibiting cerebral connexins
# Experimental: Twenty thousand RIN were seeded in 100 μl of culture medium in 96-wells plates. After 48 h culture, cells were treated for 4 hours with previously identified chemical compounds at several concentrations. Cells were rinsed in PBS and grown 24 h in fresh medium. Cell viability was measured by using WST-1 (Roche).
# [13] = target: T5, Cx43 (Homo sapiens, UniProt P17302); assay: Dye transfer (cell-parachute) gap junction assay, Rin-Cx43 cells; assay type: cell-based; settings: flecainide racemate 70, 140 or 280 μM, 4 hours, flow cytometry
# T5 construct: expressed in transfected cells; host or cells: rat insulinoma RIN cell line (Rin-Cx43), pcDNA3.1/V5-His-TOPO, geneticin-selected
# Experimental: as §1, §2
# [14] = flecainide racemate 1 mg/kg alone
# T5 sequence (P17302 2-382 limits assumed): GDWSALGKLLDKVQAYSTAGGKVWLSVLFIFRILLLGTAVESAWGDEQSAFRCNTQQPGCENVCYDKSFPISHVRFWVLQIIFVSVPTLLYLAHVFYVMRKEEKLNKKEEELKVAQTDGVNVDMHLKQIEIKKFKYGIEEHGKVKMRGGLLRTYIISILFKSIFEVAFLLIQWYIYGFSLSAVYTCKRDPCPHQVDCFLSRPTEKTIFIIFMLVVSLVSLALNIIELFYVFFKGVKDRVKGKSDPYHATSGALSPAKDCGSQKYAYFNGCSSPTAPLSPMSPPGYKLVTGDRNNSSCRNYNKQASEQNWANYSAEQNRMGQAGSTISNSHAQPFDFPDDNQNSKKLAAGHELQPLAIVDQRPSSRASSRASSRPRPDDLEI
# T1 sequence (O95452 whole entry): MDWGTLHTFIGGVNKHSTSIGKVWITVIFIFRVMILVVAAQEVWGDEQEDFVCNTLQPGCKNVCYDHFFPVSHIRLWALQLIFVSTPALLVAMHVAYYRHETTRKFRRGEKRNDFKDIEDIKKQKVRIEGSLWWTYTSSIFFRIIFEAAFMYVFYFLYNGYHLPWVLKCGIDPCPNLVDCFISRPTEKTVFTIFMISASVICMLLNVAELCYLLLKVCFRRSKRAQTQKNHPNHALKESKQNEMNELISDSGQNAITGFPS
# T4 sequence (P36382 whole entry): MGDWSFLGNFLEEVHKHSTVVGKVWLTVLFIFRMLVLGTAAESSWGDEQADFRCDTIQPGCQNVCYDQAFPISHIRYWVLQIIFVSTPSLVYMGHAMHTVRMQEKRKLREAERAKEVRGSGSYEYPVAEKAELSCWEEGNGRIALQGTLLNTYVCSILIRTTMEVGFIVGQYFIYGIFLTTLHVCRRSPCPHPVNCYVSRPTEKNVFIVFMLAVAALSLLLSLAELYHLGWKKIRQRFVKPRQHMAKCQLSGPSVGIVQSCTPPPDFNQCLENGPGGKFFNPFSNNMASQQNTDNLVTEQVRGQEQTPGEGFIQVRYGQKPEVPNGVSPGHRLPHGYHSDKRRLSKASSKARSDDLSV
# T2 sequence (P08034 whole entry): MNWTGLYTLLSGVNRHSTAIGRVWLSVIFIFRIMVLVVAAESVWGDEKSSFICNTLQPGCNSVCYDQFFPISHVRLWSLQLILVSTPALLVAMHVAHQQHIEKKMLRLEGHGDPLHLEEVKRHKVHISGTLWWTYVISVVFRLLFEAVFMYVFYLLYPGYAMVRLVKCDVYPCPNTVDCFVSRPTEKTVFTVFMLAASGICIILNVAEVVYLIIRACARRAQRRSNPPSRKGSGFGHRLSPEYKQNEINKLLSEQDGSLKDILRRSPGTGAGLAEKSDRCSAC
compound,measurement,setting,value
"O=C(NC[C@H]1CCCCN1)c1cc(OCC(F)(F)F)ccc1OCC(F)(F)F [R-flecainide, (R)—N-(piperidin-2-ylmethyl)-2,5-bis(2,2,2-trifluoroethoxy)benzamide]",half-life,[1],12.9 h
same,urinary recovery,[1],15.6 ± 3.7 mg
same,"DREM cataplectic-like phenotype, flecainide enantiomer combined with modafinil","[2]; modafinil 64 mg/kg + enantiomer 1 mg/kg, R- compared with S-flecainide",more efficient
"NC(=O)C[S+]([O-])C(c1ccccc1)c1ccccc1 (stereo not drawn) [modafinil, 2-[(diphenylmethyl)sulfinyl] acetamide]","DREM episodes under modafinil (Lin et al, 2008)",[3],allows DREM episodes to persist
same,"DREM cataplectic-like phenotype, modafinil alone",[2]; modafinil 64 mg/kg alone,do not have any significant effect
"O=C(NC[C@@H]1CCCCN1)c1cc(OCC(F)(F)F)ccc1OCC(F)(F)F [S-flecainide, (S)—N-(piperidin-2-ylmethyl)-2,5-bis(2,2,2-trifluoroethoxy)benzamide]",half-life,[1],9.8 h
same,urinary recovery,[1],12.0 ± 3.7 mg
"O=C(NCC1CCCCN1)c1cc(OCC(F)(F)F)ccc1OCC(F)(F)F (racemic) [flecainide, N-(piperidin-2-ylmethyl)-2,5-bis(2,2,2-trifluoroethoxy) benzamide]","Locomotor effect, flecainide alone",[4]; [14],devoid of any own locomotor effect
same,Duration of effect of modafinil on locomotor activity with flecainide added,[4]; modafinil 64 mg/kg + flecainide 1 mg/kg,significantly increases the duration of effect of modafinil
same,Inhibition of gap junction dye transfer (cellular coupling),[5],inhibits all the tested isoforms; also recorded: higher inhibition levels
same,"Wake duration, flecainide alone",[6]; flecainide 1 mg/kg alone,devoid of own effect on wake duration
same,Waking effect of modafinil (wake duration) with flecainide added,"[6]; modafinil 32 mg/kg + flecainide racemate 1 mg/kg, first three hours after one-hour period",significantly increases
same,Influence on junctional resistance,[7],not to influence
same,Inhibition of gap junction dye transfer (cellular coupling),[8],inhibits all the tested isoforms
same,"Cognitive (promnesiant) effect, flecainide alone",[9]; [14],no own cognitive effect
same,Promnesiant activity of modafinil (percentage of alternation) with flecainide added,[9]; modafinil 64 mg/kg + flecainide racemate 1 mg/kg,significantly potentiates
same,Inhibition of gap junction dye transfer (cellular coupling),[10],inhibits all the tested isoforms; also recorded: higher inhibition levels
same,Inhibition of gap junction dye transfer (cellular coupling),[11],inhibits all the tested isoforms
same,"DREM cataplectic-like phenotype, flecainide alone",[2]; [14],no effect
same,Cell viability (WST-1),[12],no cell toxicity
same,Inhibition of gap junction dye transfer (cellular coupling),[13],inhibits all the tested isoforms; also recorded: higher inhibition levels
